Laboratory results: US11840686B2, “Modulation of prekallikrein (PKK) expression” (Ionis Pharmaceuticals, Inc., priority 2013, dated 2023)
Strand notation (5' to 3'): a small letter for the sugar, then the base; units joined by * are phosphorothioate-linked, units joined directly phosphodiester-linked; [ ] holds rarer units or linkages, { } end groups; capitals alone tell only the bases. e = 2'-O-(2-methoxyethyl) (MOE); [5mC] = 5-methylcytosine; d = 2'-deoxy (DNA)

System: human PKK mRNA
Experiment: Antisense inhibition of human PKK mRNA in HepaRG cells, 5,000 nM (Example 2)
Format: cell-based
Procedure, shortened: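 HepaRG cells (20,000/well) electroporated with 5,000 nM MOE gapmer (phosphorothioate backbone, 5-methylcytosines) and harvested after ~24 h. PKK mRNA measured by qRT-PCR with primer probe set RTS3454, normalized to RIBOGREEN total RNA; percent inhibition versus untreated cells.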

[1] = HepaRG cells, electroporation with 5,000 nM antisense oligonucleotide, approximately 24 hours, PKK mRNA by RT-PCR (RTS3454), relative to untreated control cells, Table 6 experiment
[2] = human PKK mRNA, HepaRG cells, 5,000 nM antisense oligonucleotide, Table 18
[3] = Table 7, HepaRG cells, electroporation with 5,000 nM antisense oligonucleotide, approx. 24 hours, PKK mRNA by RT-PCR (RTS3454), relative to untreated control cells
[4] = Table 9 experiment, HepaRG cells, 20,000 cells per well, electroporation with 5,000 nM antisense oligonucleotide, approx. 24 hours, PKK mRNA by RT-PCR (RTS3454), relative to untreated control cells
[5] = Table 10 experiment, HepaRG cells, 20,000 cells per well, electroporation with 5,000 nM antisense oligonucleotide, approx. 24 hours, PKK mRNA by RT-PCR (RTS3454), relative to untreated control cells
[6] = HepaRG cells, electroporation with 5,000 nM antisense oligonucleotide, approximately 24 hours, PKK mRNA by RT-PCR (RTS3454), relative to untreated control cells, Table 5 experiment
[7] = HepaRG cells, electroporation, 5,000 nM antisense oligonucleotide, approx. 24 hours, primer probe set RTS3454, relative to untreated control cells, Table 11
[8] = HepaRG cells, electroporation, 5,000 nM antisense oligonucleotide, approx. 24 hours, primer probe set RTS3454, relative to untreated control cells, Table 12
[9] = human PKK mRNA in HepaRG cells, 5-10-5 gapmers, Table 14
[10] = Table 8, HepaRG cells, electroporation with 5,000 nM antisense oligonucleotide, approx. 24 hours, PKK mRNA by RT-PCR (RTS3454), relative to untreated control cells
[11] = HepaRG cells, 5,000 nM antisense oligonucleotide, 5-10-5 gapmers, Table 16
[12] = Table 13, human PKK mRNA in HepaRG cells, 5-10-5 gapmers

With “547327 (antisense eT*eT*eG*eA*eT*dG*dA*d[5mC]*d[5mC]*dA*d[5mC]*dA*dT*dT*dG*e[5mC]*eT*eT*e[5mC]*eA) [compound 547327]” the “% inhibition” value [1] was 45%.
With “548738 (DNA eT*eA*e[5mC]*eT*dA*dG*dT*dT*dT*d[5mC]*d[5mC]*dT*dA*eT*eA*eA*e[5mC]; antisense) [compound 548738]” the “% inhibition” value [2] was 0%.
“546239 (eG*eT*eT*e[5mC]*eT*dT*dT*dT*dG*d[5mC]*dA*dG*dG*dT*dT*eA*eA*eA*eA*eG; antisense) [compound 546239]” was tested, and the “% inhibition” value [3] was 47%.
With “548729 (DNA eG*eT*eA*e[5mC]*dT*dA*dG*dT*dT*dT*d[5mC]*d[5mC]*dT*dA*eT*eA*eA; antisense) [compound 548729]” the “% inhibition” value [2] was 13%.
With “547332 (antisense e[5mC]*eG*eA*eT*eG*dG*d[5mC]*dA*dA*dG*d[5mC]*dA*d[5mC]*dT*dT*eA*eT*eT*eT*eG) [compound 547332]” the “% inhibition” value [1] was 44%.
With “547484 (antisense e[5mC]*eT*eA*eA*eG*dG*dG*dA*d[5mC]*d[5mC]*dA*d[5mC]*d[5mC]*dT*dG*eA*eA*eT*e[5mC]*eT) [compound 547484]” the “% inhibition” value [4] was 69% and the “% inhibition” value [5] was 64%.
For “546173 (antisense e[5mC]*eG*eA*eT*eG*dT*dA*d[5mC]*dT*dT*dT*dT*dG*dG*d[5mC]*eA*eG*eG*eG*eT) [compound 546173]”, the “% inhibition” value [6] was 84%.
With “546364 (antisense eG*eG*eA*e[5mC]*eT*dG*d[5mC]*dT*dT*d[5mC]*dT*d[5mC]*dA*dT*dG*e[5mC]*eT*eG*eG*eT) [compound 546364]” the “% inhibition” value [7] was 61%.
With “547549 (antisense e[5mC]*e[5mC]*e[5mC]*eA*eT*dG*d[5mC]*dA*dT*dA*d[5mC]*dT*d[5mC]*dG*d[5mC]*e[5mC]*eT*eT*eT*eG) [compound 547549]” the “% inhibition” value [8] was 36%.
With “547592 (eT*e[5mC]*e[5mC]*eT*eA*dT*dA*dA*d[5mC]*dT*dA*dT*dA*dA*d[5mC]*eA*eG*eT*eA*eT; antisense) [compound 547592]” the “% inhibition” value [9] was 27%.
In the case of “547351 (antisense eT*eT*eT*eG*eG*d[5mC]*dA*dT*dT*d[5mC]*dT*dT*d[5mC]*dA*dA*e[5mC]*eA*e[5mC]*eT*eG) [compound 547351]”, the “% inhibition” value [1] is reported as 92%.
In the case of “547434 (eA*eG*eA*eG*eT*dT*dT*dG*dT*dT*d[5mC]*d[5mC]*dT*d[5mC]*d[5mC]*eA*eA*e[5mC]*eA*eA; antisense) [compound 547434]”, the “% inhibition” value [10] is reported as 54%.
For “546955 (eA*e[5mC]*eA*eA*eG*dG*d[5mC]*dT*dT*d[5mC]*dG*dA*dG*dG*dA*e[5mC]*eA*eG*e[5mC]*e[5mC]; antisense) [compound 546955]”, the “% inhibition” value [11] was 49%.
In the case of “547287 (antisense eG*eT*e[5mC]*eA*eG*dA*d[5mC]*dA*dT*d[5mC]*d[5mC]*dA*d[5mC]*dA*dG*eG*eA*eA*eA*e[5mC]) [compound 547287]”, the “% inhibition” value [6] is reported as 69%.
“547690 (antisense e[5mC]*eT*eG*eT*eA*dA*d[5mC]*dA*dA*dT*dA*dT*d[5mC]*dA*d[5mC]*eT*eG*eT*e[5mC]*e[5mC]) [compound 547690]” was tested, and the “% inhibition” value [11] was 76%.
For “547305 (antisense eA*e[5mC]*e[5mC]*eA*eA*dA*d[5mC]*d[5mC]*dT*dT*dT*dT*d[5mC]*dT*d[5mC]*e[5mC]*eA*eT*eG*eT) [compound 547305]”, the “% inhibition” value [6] was 47%.
For “546300 (antisense eT*eA*eA*eT*eG*dT*d[5mC]*dT*dG*dA*d[5mC]*dA*dG*dA*dT*eT*eT*eA*eA*eA) [compound 546300]”, the “% inhibition” value [10] was 58%.
With “547451 (antisense eT*eT*eG*eG*eT*dG*dA*dA*dT*dA*dA*dT*dA*dA*dT*e[5mC]*eT*e[5mC]*eT*eT) [compound 547451]” the “% inhibition” value [4] was 75% and the “% inhibition” value [5] was 64%.
“547307 (antisense eG*eA*eA*eG*e[5mC]*dA*dA*d[5mC]*d[5mC]*dA*dA*dA*d[5mC]*d[5mC]*dT*eT*eT*eT*e[5mC]*eT) [compound 547307]” was tested, and the “% inhibition” value [6] was 58%.
For “547485 (antisense e[5mC]*eA*eA*eA*e[5mC]*dT*dA*dA*dG*dG*dG*dA*d[5mC]*d[5mC]*dA*e[5mC]*e[5mC]*eT*eG*eA) [compound 547485]”, the “% inhibition” value [4] was 49% and the “% inhibition” value [5] was 66%.
“547516 (antisense eG*eA*eT*eG*e[5mC]*dA*dA*dA*dG*dA*dA*dG*dA*dT*dG*e[5mC]*e[5mC]*eA*e[5mC]*eT) [compound 547516]” was tested, and the “% inhibition” value [7] was 48%.
With “547371 (eA*eT*eG*eG*eT*d[5mC]*d[5mC]*dG*dA*d[5mC]*dA*d[5mC]*dA*d[5mC]*dA*eA*eA*eA*eG*e[5mC]; antisense) [compound 547371]” the “% inhibition” value [3] was 66%.
“547400 (eT*eG*eG*e[5mC]*eA*dG*dG*dG*dT*dT*d[5mC]*dA*dG*dG*dT*eA*eA*eA*eG*eT; antisense) [compound 547400]” was tested, and the “% inhibition” value [3] was 0%.
In the case of “547596 (antisense eT*eA*e[5mC]*eT*eA*dG*dT*dT*dT*d[5mC]*d[5mC]*dT*dA*dT*dA*eA*e[5mC]*eT*eA*eT) [compound 547596]”, the “% inhibition” value [9] is reported as 14%.
With “547382 (e[5mC]*eT*eT*eT*eG*dT*dG*dA*d[5mC]*dT*d[5mC]*dG*dA*dT*dT*eT*eT*e[5mC]*e[5mC]*eA; antisense) [compound 547382]” the “% inhibition” value [3] was 62%.
With “546151 (eG*eG*eA*eA*eG*d[5mC]*dT*dA*d[5mC]*dA*dT*d[5mC]*d[5mC]*d[5mC]*d[5mC]*eA*e[5mC]*e[5mC]*eT*e[5mC]; antisense) [compound 546151]” the “% inhibition” value [6] was 76%.
With “546842 (eT*e[5mC]*eA*e[5mC]*eT*dG*dT*d[5mC]*d[5mC]*dT*dA*dT*dA*dA*d[5mC]*eT*e[5mC]*eT*eA*eA; antisense) [compound 546842]” the “% inhibition” value [12] was 54%.
For “546143 (eG*eG*eA*eA*eA*d[5mC]*dT*dG*dT*dA*dG*d[5mC]*dA*dA*dA*e[5mC]*eA*eA*eG*eG; antisense) [compound 546143]”, the “% inhibition” value [6] was 46%.
With “546954 (e[5mC]*eT*eG*e[5mC]*eT*dG*dA*dT*dT*dG*dT*dG*dT*d[5mC]*dT*eG*eG*e[5mC]*eT*e[5mC]; antisense) [compound 546954]” the “% inhibition” value [11] was 71%.
With “547537 (antisense e[5mC]*e[5mC]*eT*eG*eT*dG*d[5mC]*dA*dT*dA*dG*dA*d[5mC]*d[5mC]*d[5mC]*e[5mC]*eA*eA*e[5mC]*eA) [compound 547537]” the “% inhibition” value [8] was 65%.
In the case of “547598 (antisense eA*e[5mC]*eT*eA*eT*dA*dA*d[5mC]*dA*dA*dT*dA*dT*d[5mC]*dA*e[5mC]*eT*eG*eT*e[5mC]) [compound 547598]”, the “% inhibition” value [9] is reported as 59%.
For “546299 (antisense eA*eT*eG*e[5mC]*e[5mC]*dA*d[5mC]*dT*dA*dT*dA*dG*dA*dT*dG*e[5mC]*eG*e[5mC]*e[5mC]*eA) [compound 546299]”, the “% inhibition” value [10] was 84%.
For “547440 (antisense eT*e[5mC]*e[5mC]*eT*eA*dT*dG*dA*dG*dT*dG*dA*d[5mC]*d[5mC]*d[5mC]*eT*e[5mC]*e[5mC]*eA*e[5mC]) [compound 547440]”, the “% inhibition” value [10] was 67%.
With “547311 (antisense e[5mC]*eA*e[5mC]*eT*eA*dT*d[5mC]*dT*dT*dT*d[5mC]*dA*dA*dG*dA*eA*eG*e[5mC]*eA*eA) [compound 547311]” the “% inhibition” value [6] was 71%.
“547299 (antisense eA*eA*eA*e[5mC]*eT*dG*dA*dA*dT*dA*dG*d[5mC]*dA*dA*dA*e[5mC]*eA*e[5mC]*e[5mC]*eT) [compound 547299]” was tested, and the “% inhibition” value [6] was 76%.
With “547586 (eT*eA*eT*eA*eA*d[5mC]*dA*dG*dT*dA*dT*d[5mC]*dA*d[5mC]*dT*eG*eT*e[5mC]*e[5mC]*eT; antisense) [compound 547586]” the “% inhibition” value [9] was 82%.
For “547698 (antisense eA*e[5mC]*e[5mC]*eT*eA*dT*dA*dA*d[5mC]*dT*dA*dT*dA*dA*d[5mC]*eA*eA*eT*eA*eT) [compound 547698]”, the “% inhibition” value [11] was 0%.
“546380 (antisense eG*e[5mC]*e[5mC]*eA*e[5mC]*dT*d[5mC]*dT*d[5mC]*d[5mC]*dA*dT*dG*d[5mC]*dT*eT*eT*eG*e[5mC]*eA) [compound 546380]” was tested, and the “% inhibition” value [7] was 81%.
For “547576 (e[5mC]*eT*eA*eG*eT*dT*dT*d[5mC]*d[5mC]*dT*dA*dT*dA*dA*d[5mC]*eT*eG*e[5mC]*eT*eG; antisense) [compound 547576]”, the “% inhibition” value [12] was 29%.
In the case of “546270 (eA*e[5mC]*eA*e[5mC]*eT*dT*dA*d[5mC]*dA*d[5mC]*dT*dT*d[5mC]*dT*d[5mC]*eT*eT*e[5mC]*e[5mC]*eT; antisense) [compound 546270]”, the “% inhibition” value [10] is reported as 32%.
“547085 (e[5mC]*e[5mC]*eA*eG*eG*dT*dG*d[5mC]*dA*dG*d[5mC]*dA*d[5mC]*dG*dG*eA*eG*eA*eG*eG; antisense) [compound 547085]” was tested, and the “% inhibition” value (HepaRG cells, 5,000 nM antisense oligonucleotide, 5-10-5 gapmers, Table 17) was 44%.
“546578 (eG*eA*e[5mC]*eA*eG*dT*dG*dG*dG*d[5mC]*d[5mC]*dA*dG*dA*dG*e[5mC]*e[5mC]*eT*eT*eG; antisense) [compound 546578]” was tested, and the “% inhibition” value [11] was 73%.
